These results are taken from patent US11578055B2, “Triazacyclododecansulfonamide (“TCD”)-based protein secretion inhibitors” (KEZAR LIFE SCIENCES, priority 2018, dated 2023).

Molecules are shown by their SMILES. Like-named read-outs stand apart in the source and are kept apart here. Where only a bound is given, the exact number is not on record here.

In data set [1] the test system is PD1 signal sequence plus 10 amino acids fused to Gaussia Luciferase (PD1-ss+10aa/Gaussia Luciferase). As to the kind of experiment: Dox Induced PD1-ss-Gluc Assay. The class given is cell-based. The following applies: 24 hr, read-out: 24 hr Dox Inducible PD1ssGluc 293FRT/TO: Mean IC50. In outline:
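Stable Flp-In 293 T-REx line expressing the fusion under tetracycline-inducible control, plated the day before assay. Compound dilutions added with doxycycline and incubated at 37 °C, 5% CO2; unspecified stereocentres mean data refer to stereoisomer mixtures.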

The subject of data set [2] is full length TNFα (amino acids 1-233) fused to Gaussia Luciferase. As to the kind of experiment: Dox Induced TNFα-FL-Gluc Assay. The class given is cell-based. The following applies: 24 hr, read-out: 24 hr Dox Inducible TNFaFLGluc 293FRT/TO: Mean IC50. Summed up:
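Stable Flp-In 293 T-REx line expressing doxycycline-inducible full-length TNFα fused to Gaussia luciferase; cells plated the day before, then treated with compound dilutions in doxycycline-containing medium at 37° C, 5% CO2. Unspecified stereocentres mean stereoisomer mixtures were tested.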

In data set [3] the test system is full length IL-2 (amino acids 1-153) fused to Gaussia Luciferase. As to the kind of experiment: Dox Induced IL2-FL-Gluc Assay. Type of data set: cell-based. The following applies: 24 hr, read-out: 24 hr Dox Inducible IL2FLGluc 293FRT/TO: Mean IC50. Summed up:
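Flp-In 293 T-REx stable line expressing full-length IL-2 (aa 1-153) with C-terminal Gaussia luciferase fusion under doxycycline-inducible control. Cells plated the day before; compound dilutions added in DMSO/media containing doxycycline, incubated at 37° C, 5% CO2.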

For data set [4], the system named is multiple myeloma cell line NCl-H929. As to the kind of experiment: H929 Cell Viability Assay. Type of data set: cell-based, human. In outline:
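NCI-H929 myeloma cells in RPMI 1640 with 10% FBS were treated with compound dilutions for 48 h at 37 °C, and viability was then read by CellTiter-Glo luminescence. Compounds drawn without stereochemistry were tested as stereoisomer mixtures.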

Data set [5] has as its system multiple myeloma cell line U266B1. As to the kind of experiment: U266 Cell Viability Assay. Conditions: 48 hr. The class given is cell-based, human. In outline: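 U266B1 myeloma cells in RPMI 1640 with 10% FBS were treated with compound dilutions for 48 h at 37° C, 5% CO2. Viability was read as CellTiter-Glo luminescence. Data for structures drawn without stereochemistry refer to stereoisomer mixtures.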

The nature of data set [6]: In Vitro Microsome Stability Assay (human). The class given is in vitro ADME. In outline: (§1)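 Species liver microsomes in potassium phosphate buffer were preincubated at 37 °C for 3–5 min with test compound (added from 0.25 mM DMSO stock), then started with NADPH. Samples at 0 and 30 min were quenched with acetonitrile containing internal standard and analysed by LC-MS/MS; % remaining at 30 min used analyte/IS AUC ratios relative to t=0.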

The nature of data set [7]: In Vitro Microsome Stability Assay (mouse). The class given is in vitro ADME. In outline:
as §1

Data set [8] is described as follows: In Vitro Microsome Stability Assay (rat). The class given is in vitro ADME. In outline:
as §1

Data set [9] is described as follows: In Vitro Microsome Stability Assay (monkey). The class given is in vitro ADME. Summed up:
as §1

The mark [10] stands for this setting: Homo sapiens, NCI-H929, 48 h, H929, Celltiter-Glo.
Where [11] appears, read: Homo sapiens, U-266, U266, Celltiter-Glo.
The mark [12] stands for this setting: human liver microsomes, 30 min w/ NADPH.
Where [13] appears, read: mouse liver microsomes, 30 min w/ NADPH.
The mark [14] stands for this setting: rat liver microsomes, 30 min w/ NADPH.
The mark [15] stands for this setting: monkey liver microsomes, 30 min w/ NADPH.

Consider `C[C@@H]1CCN(S(=O)(=O)N2CCc3cc(Cl)ccc3C2)CCCN(CC2CCCCC2)CCCN1S(=O)(=O)c1ccc(N(C)C)cc1` [A149, 4-{[(2 R)-5-[(6-chloro-1,2,3,4-tetrahydroisoquinolin-2-yl)sulfonyl]-9-(cyclohexylmethyl)-2-methyl-1,5,9-triazacyclododecan-1-yl]sulfonyl}-N,N-dimethylaniline], for which the IC50 in data set [1] (Dox inducible, 293FRT/TO cells) is greater than 25 µM; in [2] (Dox inducible, 293FRT/TO cells), greater than 25 µM; in data set [3] (Dox inducible, 293FRT/TO cells) it was greater than 25 µM. In addition, the EC50 in [4] (setting [10]) and in [5] (setting [11]) was greater than 25 µM throughout. In [6] (setting [12]), the “Liver Microsome Stability-% Left after 30 min w/ NADPH (%) Human” value (from here on “Liver Microsome Stability-% Left … (%) Human”) was 0.44%. Moreover, the “Liver Microsome Stability-% Left after 30 min w/ NADPH (%) Mouse” value (“Liver Microsome Stability-% Left … (%) Mouse” below) in data set [7] (setting [13]) came to 0.83%. Moreover, the “Liver Microsome Stability-% Left after 30 min w/ NADPH (%) Rat” value (shortened to “Liver Microsome Stability-% Left … (%) Rat”) in data set [8] (setting [14]) was found to be 0.47%. For the same molecule, the “Liver Microsome Stability-% Left after 30 min w/ NADPH (%) Monkey” value (shortened to “Liver Microsome Stability-% Left … (%) Monkey”) in data set [9] (setting [15]) stood at 0.96%.
For `Cc1cc(F)ccc1N1CCN(S(=O)(=O)N2CCCN(CC3CCCCC3)CCCN(S(=O)(=O)c3ccc(N(C)C)cc3)C[C@H](C)C2)C(C)C1` (stereo in doubt) [A163, 4-{[(3S)-9-(cyclohexylmethyl)-5-{[(2 R)-4-(4-fluoro-2-methylphenyl)-2-methylpiperazin-1-yl]sulfonyl}-3-methyl-1,5,9-triazacyclododecan-1-yl]sulfonyl}-N,N-dimethylaniline], the IC50 was found to be 0.0556 µM in [1] (Dox inducible, 293FRT/TO cells); 1.93 µM in data set [2] (Dox inducible, 293FRT/TO cells); 0.0812 µM in [3] (Dox inducible, 293FRT/TO cells). The EC50 was 13.6 µM in data set [4] (48 hr, H929, Celltiter-Glo) and greater than 25 µM in [5] (U266, Celltiter-Glo). Also, in data set [6] (setting [12]), the “Liver Microsome Stability-% Left … (%) Human” value is given as 64.2%. Moreover, the “Liver Microsome Stability-% Left … (%) Mouse” value in data set [7] (setting [13]) worked out at 72.8%. For the same molecule, the “Liver Microsome Stability-% Left … (%) Rat” value in data set [8] (setting [14]) came out at 54.9%. Moreover, the “Liver Microsome Stability-% Left … (%) Monkey” value in [9] (setting [15]) came to 57.5%.
In the case of `COc1c(F)cccc1N1CCN(S(=O)(=O)N2CCCN(CC3CCCCC3)CCCN(S(=O)(=O)c3ccc(N(C)C)cc3)C[C@H](C)C2)CC1` [A175, 4-{[(3S)-9-(cyclohexylmethyl)-5-{[4-(3-fluoro-2-methoxyphenyl)piperazin-1-yl]sulfonyl}-3-methyl-1,5,9-triazacyclododecan-1-yl]sulfonyl}-N,N-dimethylaniline], the IC50 in data set [1] (Dox inducible, 293FRT/TO cells) was 0.00935 µM; in data set [2] (Dox inducible, 293FRT/TO cells) it was 0.393 µM; in data set [3] (Dox inducible, 293FRT/TO cells), 0.0404 µM. The EC50 in data set [4] (setting [10]) was 1.44 µM; in data set [5] (setting [11]) it was greater than 25 µM. For the same molecule, in [6] (setting [12]), the “Liver Microsome Stability-% Left … (%) Human” value was 4.26%. Further, in [7] (setting [13]), the “Liver Microsome Stability-% Left … (%) Mouse” value is reported as 6.73%. The “Liver Microsome Stability-% Left … (%) Rat” value in data set [8] (setting [14]) turned out to be 6.28%. Also, the “Liver Microsome Stability-% Left … (%) Monkey” value in [9] (setting [15]) turned out to be 2.27%.
Turning to `Cc1cc(F)ccc1N1CCN(S(=O)(=O)N2CCCN(CC3CCCCC3)CCCN(S(=O)(=O)c3ccc(N(C)C)cc3)C[C@H](C)C2)[C@@H](C)C1` [A162, 4-{[(3S)-9-(cyclohexylmethyl)-5-{[(2 S)-4-(4-fluoro-2-methylphenyl)-2-methylpiperazin-1-yl]sulfonyl}-3-methyl-1,5,9-triazacyclododecan-1-yl]sulfonyl}-N,N-dimethylaniline], the IC50 in data set [1] (Dox inducible, 293FRT/TO cells) came to 0.101 µM; in [2] (Dox inducible, 293FRT/TO cells) it was 6.26 µM; in data set [3] (Dox inducible, 293FRT/TO cells), 0.201 µM. In addition, the EC50 in [4] (setting [10]) and in data set [5] (setting [11]) was greater than 25 µM throughout. The “Liver Microsome Stability-% Left … (%) Human” value in data set [6] (setting [12]) is recorded as 70.5%. Moreover, the “Liver Microsome Stability-% Left … (%) Mouse” value in data set [7] (setting [13]) is 62.5%. Further, the “Liver Microsome Stability-% Left … (%) Rat” value in data set [8] (setting [14]) is recorded as 69.6%. Also, the “Liver Microsome Stability-% Left … (%) Monkey” value in data set [9] (setting [15]) is given as 60.3%.
As for `Cc1cccc(CN2CCCN(S(=O)(=O)c3ccc(N(C)C)cc3)C[C@H](C)CN(S(=O)(=O)N3CCc4cc(Cl)ccc4C3)CCC2)c1` [A156, 4-{[(3S)-5-[(6-chloro-1,2,3,4-tetrahydroisoquinolin-2-yl)sulfonyl]-3-methyl-9-[(3-methylphenyl)methyl]-1,5,9-triazacyclododecan-1-yl]sulfonyl}-N,N-dimethylaniline], the IC50 was found to be 0.0925 µM in [1] (Dox inducible, 293FRT/TO cells); 1.83 µM in data set [2] (Dox inducible, 293FRT/TO cells); 0.207 µM in [3] (Dox inducible, 293FRT/TO cells). For the same molecule, the results for the EC50 in data set [4] (setting [10]) and in data set [5] (setting [11]) were 3.71 µM and greater than 25 µM, respectively. The “Liver Microsome Stability-% Left … (%) Human” value in data set [6] (setting [12]) stood at 81.3%. For the same molecule, the “Liver Microsome Stability-% Left … (%) Mouse” value in data set [7] (setting [13]) is given as 75.6%. In addition, the “Liver Microsome Stability-% Left … (%) Rat” value in data set [8] (setting [14]) is 82.1%. Moreover, the “Liver Microsome Stability-% Left … (%) Monkey” value in [9] (setting [15]) worked out at 80.6%.
`C[C@H]1CN(S(=O)(=O)c2ccc(N(C)C)cc2)CCCN(CC2CCCCC2)CCCN(S(=O)(=O)N2CC[C@@H](c3ccccc3)C2)C1` [A90, 4-{[(3S)-9-(cyclohexylmethyl)-3-methyl-5-{[(3S)-3-phenylpyrrolidin-1-yl]sulfonyl}-1,5,9-triazacyclododecan-1-yl]sulfonyl}-N,N-dimethylaniline]: the figures for the IC50 in data set [1] (293FRT/TO), in data set [2] (293FRT/TO) and in [3] (293FRT/TO) were 0.207 µM, 2.41 µM and 0.493 µM, respectively. Besides, the EC50 was 3.79 µM in [4] (Homo sapiens, NCI-H929, 48 h, H929, read-out: 48 hr H929 Viability Celltiter-Glo: Mean EC50) and greater than 25 µM in data set [5] (Homo sapiens, U-266, U266, read-out: 48 hr U266 Viability Celltiter-Glo: Mean EC50). Further, the “Liver Microsome Stability-% Left … (%) Human” value in data set [6] (human, 30 min, NADPH) is reported as 20.1%. In [7] (mouse, 30 min, NADPH), the “Liver Microsome Stability-% Left … (%) Mouse” value stood at 28.2%. Moreover, in data set [8] (rat, 30 min, NADPH), the “Liver Microsome Stability-% Left … (%) Rat” value stood at 20.2%. The “Liver Microsome Stability-% Left … (%) Monkey” value in data set [9] (monkey, 30 min, NADPH) was 14.1%.
Consider `C[C@H]1CN(S(=O)(=O)c2cccc(N(C)C)c2)CCCN(CC2CCCCC2)CCCN(S(=O)(=O)N2CCc3cc(Cl)ccc3C2)C1` [A168, 3-{[(3S)-5-[(6-chloro-1,2,3,4-tetrahydroisoquinolin-2-yl)sulfonyl]-9-(cyclohexylmethyl)-3-methyl-1,5,9-triazacyclododecan-1-yl]sulfonyl}-N,N-dimethylaniline], for which the IC50 in data set [1] (Dox inducible, 293FRT/TO cells) is 1.49 µM; in [2] (Dox inducible, 293FRT/TO cells), greater than 25 µM; in [3] (Dox inducible, 293FRT/TO cells) it was 1.14 µM. Also, the EC50 in data set [4] (setting [10]) and in data set [5] (setting [11]) was greater than 25 µM each time. Moreover, the “Liver Microsome Stability-% Left … (%) Human” value in data set [6] (setting [12]) is listed as 25.7%. Also, in data set [7] (setting [13]), the “Liver Microsome Stability-% Left … (%) Mouse” value stood at 42%. Also, in [8] (setting [14]), the “Liver Microsome Stability-% Left … (%) Rat” value came to 42.1%. The “Liver Microsome Stability-% Left … (%) Monkey” value in data set [9] (setting [15]) was 73%.
With `C[C@H]1CCN(S(=O)(=O)N2CCc3cc(Cl)ccc3C2)CCCN(CC2CCCCC2)CCCN1S(=O)(=O)c1ccc(N(C)C)cc1` [A150, 4-{[(2 S)-5-[(6-chloro-1,2,3,4-tetrahydroisoquinolin-2-yl)sulfonyl]-9-(cyclohexylmethyl)-2-methyl-1,5,9-triazacyclododecan-1-yl]sulfonyl}-N,N-dimethylaniline], the IC50 was 0.0303 µM in data set [1] (Dox inducible, 293FRT/TO cells); 0.468 µM in data set [2] (Dox inducible, 293FRT/TO cells); 0.0413 µM in data set [3] (Dox inducible, 293FRT/TO cells). Also, the EC50 is 2 µM in [4] (setting [10]) and greater than 25 µM in data set [5] (setting [11]). The “Liver Microsome Stability-% Left … (%) Human” value in [6] (setting [12]) is given as 4.6%. Moreover, the “Liver Microsome Stability-% Left … (%) Mouse” value in data set [7] (setting [13]) was found to be 1.38%. Further, the “Liver Microsome Stability-% Left … (%) Rat” value in data set [8] (setting [14]) is 2.02%. Also, the “Liver Microsome Stability-% Left … (%) Monkey” value in data set [9] (setting [15]) came to 2.2%.

Broadly, the EC50 is the concentration that produces a half-maximal response.
